{
  "source": "ChEMBL document CHEMBL6109042",
  "about": "“Metabologenomics-Driven Discovery of Nocardimicins from a Psychrophilic Nocardia sp. Strain” (J Nat Prod, 2025)",
  "data": [
    {"system": "HeLa", "test": "Cytotoxicity against human HeLa cells", "format": "functional, cell-based", "units": {"IC50": "µM"}, "values": [
      {"smiles": "CCCCCCCCCCCCCCCC(OC(=O)[C@H](CCCCN(O)C=O)NC(=O)[C@H]1N=C(c2ccccc2O)O[C@@H]1C)C(C)C(=O)N[C@@H]1CCCCN(O)C1=O", "note": "(stereo partly drawn)", "IC50": 16.7},
      {"smiles": "CCCCCCCCCCCCCCCCCC(OC(=O)[C@H](CCCCN(O)C=O)NC(=O)[C@H]1N=C(c2ccccc2O)O[C@@H]1C)C(C)C(=O)N[C@@H]1CCCCN(O)C1=O", "note": "(stereo partly drawn)", "IC50": 16.7},
      {"smiles": "CCCCCCCCCCCCC/C=C\\CCC(OC(=O)[C@H](CCCCN(O)C=O)NC(=O)[C@H]1N=C(c2ccccc2O)O[C@@H]1C)C(C)C(=O)N[C@@H]1CCCCN(O)C1=O", "note": "(stereo partly drawn)", "IC50": 16.7}
    ]}
  ]
}
